Each structure is given as a SMILES string. “Also recorded” adds a separate entry of the source. A value given as a limit tells only on which side of the number the result lay.

Data set [1] deals with ternary complex between Cy5-EF-Tu:GTP and Cy3-Phe-tRNAPhe. The experiment in a line: EF-Tu:tRNA FRET assay (qHTS and secondary FRET assay). It counts as biochemical, E. coli. Particulars: online and offline LOPAC testing. The text has this: Upon formation of functional ternary complex between Cy5-EF-Tu:GTP and Cy3-Phe-tRNAPhe, fluorescence energy transfer (FRET) occurs between Cy3 and Cy5 fluorophores located within Förster radius (~17 Å) when Cy3 is excited at 532 nm, and as a result the complex emits light at 665 nm. Presence of inhibitors of the ternary complex prevents complex from forming, thereby reducing fluorescence intensity at 665 nm.
Inhibitors of EF-Tu:tRNA translation were identified using this in vitro FRET system. Quantitative high throughput screening (qHTS) was performed on the LOPAC library containing 1,280 chemicals to identify potential leads for antibiotic development. […]
Equipment: EnVision 2104 Multilabel Plate Reader (PerkinElmer) with excitation optical filter 2100-5050 Bodipy TMR FR 531 nm and emission optical filter 2100-5770 Cy5 685 nm. […]
All solutions were prepared fresh in assay buffer consisting of 70 mM HEPES-KOH (pH7.6), 52 mM ammonium acetate, 8 mM magnesium chloride, 30 mM potassium chloride, and 2.6% glycerol. […] FRET was then detected using 1) a ViewLux high-throughput microplate imager (PerkinElmer) equipped with Ex: 525/20 and Em: 671/8 filters; or 2) an Envision Multimode plate reader (PerkinElmer) equipped with Ex: 530/25 and Em: 665 filters. Assay performance, as calculated by Z′ factor as described by Zhang et al (J Biomol Screen, 1999), was favorable for the Envision plate reader. […]

In data set [2] the test system is Cy3/Cy5-labelled oligonucleotides. Put plainly: Counterscreen assay excluding quenching (Cy3/Cy5 oligonucleotide FRET). Particulars: 50 nM of each oligonucleotide. How it is done:
Oligonucleotides were purchased from Integrated DNA Technologies:
In the assay, a 50 nM final concentration of each oligonucleotide was used.
Incubation buffer: 70 mM HEPES-KOH (pH 7.6), 52 mM ammonium acetate, 8 mM magnesium chloride, 30 mM potassium chloride and 2.6% glycerol. A 96-well black, clear bottom microplate was used and read the plate was read using EnVision multilabel plate reader (PerkinElmer) having the same optical filters and parameters as described in Example 2.

A further data set relates to B. subtilis 1S-75. Put plainly: Zone inhibition assay (ZIA), B. subtilis. The data set is classed as cell-based, Bacillus subtilis.
Another data set has as its system B. subtilis IS-75. Put plainly: Bacterial growth / viable count assay, B. subtilis. It counts as cell-based, Bacillus subtilis. How it is done: (§1) The culture was diluted again 1/500 in 1 ml of fresh media with presence of increasing concentrations of tested compound or 1% DMSO as a control.
The next data set deals with Pseudomonas aeruginosa. The experiment in a line: Bacterial growth assay, Pseudomonas aeruginosa. The data set is classed as cell-based. As for the experimental part: as §1
The subject of a further data set is E. coli strains. Put plainly: Bacterial growth assay, E. coli. It counts as cell-based, Escherichia coli. As for the experimental part:
as §1

In data set [3] the test system is Staphylococcus aureus strains including MRSA. Put plainly: Drug susceptibility assay (MIC), Staphylococcus aureus. The data set is classed as cell-based. The settings on record: including the MRSA strain. How it is done:
Drug susceptibility assays. Experiments to determine the minimum inhibitory concentration (MIC) of RR-THC for bacterial growth were performed in 96-well microtiter plates. A DMSO stock solution of each compound was added to the first column and serially diluted across the columns of the plate. The last column of the plate contained no drug and served as a no-drug control. Overnight cultures of the bacterium being tested (MRSA ATCC 43300, […], or the aforementioned VRSA/VISA strains) were diluted 1000-fold, and 100 μL of the diluted culture (appr. 2×10^3 cells) was used as an inoculum in each well. MICs were determined by visual inspection looking for a pellet after 18 h incubation at 37° C. and centrifugation.

The test system of a further data set is Gram-negative bacteria. The experiment in a line: Drug susceptibility assay (MIC), Gram-negative bacteria. It counts as cell-based.
A further data set deals with mycobacteria. The experiment in a line: Drug susceptibility assay (MIC), mycobacteria. The data set is classed as cell-based.
The nature of data set [4]: Cytotoxicity assay (CellTiter 96 AQueous One Solution). The settings on record: African green monkey, Vero cells, read-out: Cytotoxicity CC 50. It counts as cell-based. How it is done:
Cytotoxicity assay. Compounds were tested for cytotoxicity against mammalian Vero cells using the CellTiter 96 AQueous One Solution Assay kit (Promega). Vero cells were seeded in 96-well plates at a density of 2×10^4 cells per well, and the plates were incubated for 4 h at 37° C. to allow attachments of the Vero cells. Chemical compounds being tested were then added to the wells starting from a final concentration of 50 μg/mL and making 12 1:2 dilutions. Cells were incubated for 72 h at 37° C., after which 20 μL of freshly prepared MTS:PMS reagents was added to each well. The plates were incubated for 2 h and then read at an absorbance of 490 nm.

The nature of data set [5]: Intraperitoneal administration in mice. Particulars: 10 mg/ml. It counts as in vivo.
The test system of data set [6] is USA300 methicillin-resistant Staphylococcus aureus (MRSA). The data set is classed as in vivo, C57Bl/6J mice. The settings on record: for bacterial counts (punch biopsies) / dermonecrosis: topical ointment daily, 0.2 mg drug; for dermonecrosis: first experiment.
A further data set has as its system E. coli DH5α. Put plainly: Zone inhibition assay (ZIA), E. coli.

As a reminder, the inhibition is the relative decrease from the control value, in per cent. Read a low inhibition as a response near the control. On to `CC[C@@H]1Cc2cc(O)ccc2C2=C1c1ccc(O)cc1C[C@H]2CC` [RR-THC, (R,R)-tetrahydrochrysene], for which the “effect on Cy5-EF-Tu acceptor fluorescence emission in the FRET assay” value in [1] is reported as “significantly diminished; also recorded: effectively decreased Cy5-EF-Tu acceptor fluorescence emission; also recorded: highly active in both methods”. The “change of FRET in quenching counterscreen” value in data set [2] is listed as “did not significantly change FRET”. In addition, the “zone inhibition result in words, gram-positive bacteria (B. subtilis)” value with B. subtilis 1S-75 is given as “clear zone indicative of inhibition of cell growth”. Moreover, the “colony formation of B. subtilis on agar plate” value in the data set on B. subtilis IS-75 (10 μM added to the medium in an agar plate) was “colonies did not form”. In addition, in the data set with B. subtilis IS-75 (Bacillus subtilis, IS75, 5 μM, cells grown in test tubes), the inhibition at 5 µM was about 97%. Besides, in the data set on Pseudomonas aeruginosa, the “inhibition of bacterial growth, Pseudomonas aeruginosa” value is recorded as “No inhibition”. The “inhibition of bacterial growth, E. coli strains” value with E. coli strains was “No inhibition”. In addition, the “sensitivity in MIC assay, three Staphylococcus aureus strains” value in [3] is given as “highly sensitive”. In the data set with Gram-negative bacteria, the “sensitivity in MIC assay, Gram-negative bacteria” value is “not sensitive”. Besides, the “sensitivity in MIC assay, mycobacteria” value with mycobacteria was “not sensitive”. The CC50 at 72 h in [4] was over 50 µM. Also, in data set [5], the “toxicity upon intraperitoneal administration” value was “a level of toxicity observed”. For the same compound, the “dermonecrosis, repetition of the experiment” value in data set [6] (compared to controls but not compared to the mupirocin treated group) is recorded as “statistically significant decrease in dermonecrosis”. In data set [6], the “bacterial counts (punch biopsies)” value was “no difference apparent” and the dermonecrosis result is recorded as “inhibiting dermonecrosis; also recorded: trend to reduced dermonecrosis”. In addition, the “zone inhibition result in words, E. coli” value in the data set with E. coli DH5α is given as “did not inhibit”.

For the compound `C/C(=C\C(=O)OCCCCCCCCC(=O)O)C[C@@H]1OC[C@H](C[C@@H]2O[C@H]2[C@@H](C)[C@H](C)O)[C@@H](O)[C@H]1O` [mupirocin, reference compound], in data set [6], the “bacterial counts (punch biopsies)” value is recorded as “trend to reduction” and the dermonecrosis result is recorded as “no decrease”.

Source of the values: patent US20260256712A1, “COMPOUNDS FOR INHIBITING GRAM-POSITIVE BACTERIA” (priority 2022, published 2026).
